Here are results for 17 molecules from patent publication US11702422B2, “Imidazopyridazines as modulators of IL-17” (Janssen Pharmaceutica NV, priority 2020, dated 2023).

Experiment [1] concerns the target IL-17A(FLAG-Tagged): IL-17RA(His-Tagged) (Homo sapiens, UniProt Q16552, K93Q). Description: IL-17A(FLAG-Tagged): IL-17RA(His-Tagged) Binding Disruption Eu-HTRF Assay. The note with it: IL-17A/IL-17RA binding disruption, simple average if tested more than once. The procedure, abridged:
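IC50 comes from a one-site competition fit of the HTRF 665/620 nm ratio. Compound dilutions (2-fold, 22 points) were held 1 h rt with FLAG-tagged IL-17A dimer, then His-tagged IL-17RA plus Eu-cryptate anti-FLAG and D2 anti-His antibodies were added for 2 h rt.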
(In TR-FRET formats the signal depends on donor and acceptor labels being close together.)

Experiment [2] has as its system IL-17A-induced G-CSF production in human normal keratinocyte (NHK). The experiment can be described thus: NHK Assay: IL-17A-induced G-CSF production in human normal keratinocytes. The note with it: Homo sapiens, Keratinocyte, 24 h, adult normal human keratinocytes, IL-17A 5 ng/mL, simple average if tested more than once. Format: cell-based. In outline: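 IL-17A (5 ng/mL final) was pre-incubated 1 h at rt with titrated compound and then added to adult normal human keratinocytes (5% FBS, 0.2% DMSO) for 24 h at 37° C. Supernatant G-CSF was measured by HTRF against a standard curve to derive IC50. Viability was checked by CellTiter-Glo.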

UniProt Q16552, sequence (Q16552 with tags, fused parts or gaps K93Q): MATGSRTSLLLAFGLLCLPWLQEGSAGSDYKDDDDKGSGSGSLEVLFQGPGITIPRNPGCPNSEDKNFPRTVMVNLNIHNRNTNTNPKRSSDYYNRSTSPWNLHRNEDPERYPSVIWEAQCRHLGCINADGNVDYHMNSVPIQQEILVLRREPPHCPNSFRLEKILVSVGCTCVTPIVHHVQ

Take `O=C(CCC(F)(F)F)N[C@@H](c1cnn2cc([C@@H](NC(=O)[C@H]3C[C@@H]3CF)C3CCC(F)(F)CC3)nc2c1)C1CC1` (relative stereo) [Example 363, (1S*,2S*)—N—((S)-(7-((R*)-Cyclopropyl(4,4,4-trifluorobutanamido)methyl)imidazo[1,2-b]pyridazin-2-yl)(4,4-difluorocyclohexyl)methyl)-2-(fluoromethyl)cyclopropane-1-carboxamide]: the IC50 in experiment [1] came to 640 nM; in experiment [2], 1100 nM.
The matching figures for `O=C(CCC(F)(F)F)N[C@@H](c1cnn2cc([C@@H](NC(=O)[C@H]3C[C@H]3CF)C3CCC(F)(F)CC3)nc2c1)C1CC1` (relative stereo) [Example 364, (1S*,2R*)—N—((S)-(7-((R*)-Cyclopropyl(4,4,4-trifluorobutanamido)methyl)imidazo[1,2-b]pyridazin-2-yl)(4,4-difluorocyclohexyl)methyl)-2-(fluoromethyl)cyclopropane-1-carboxamide]: 2100 nM and above 20000 nM.
For `O=C(CCC(F)(F)F)N[C@@H](c1cnn2cc([C@@H](NC(=O)[C@@H]3C[C@@H]3CF)C3CCC(F)(F)CC3)nc2c1)C1CC1` (relative stereo) [Example 365, (1R*,2S*)—N—((S)-(7-((R*)-Cyclopropyl(4,4,4-trifluorobutanamido)methyl)imidazo[1,2-b]pyridazin-2-yl)(4,4-difluorocyclohexyl)methyl)-2-(fluoromethyl)cyclopropane-1-carboxamide] the same measures were 1200 nM and above 20000 nM.
For `O=C(CCC(F)(F)F)N[C@@H](c1cnn2cc([C@@H](NC(=O)[C@@H]3CC34CCC4)C3CCC(F)(F)CC3)nc2c1)C1CC1` (relative stereo) [Example 366, (R*)—N—((S)-(7-((R*)-Cyclopropyl(4,4,4-trifluorobutanamido)methyl)imidazo[1,2-b]pyridazin-2-yl)(4,4-difluorocyclohexyl)methyl)spiro[2.3]hexane-1-carboxamide] the same measures were 2400 nM and above 20000 nM.
Regarding `O=C(CCC(F)(F)F)N[C@@H](c1cnn2cc([C@@H](NC(=O)[C@H]3CC34CCC4)C3CCC(F)(F)CC3)nc2c1)C1CC1` (relative stereo) [Example 367, (S*)—N—((S)-(7-((R*)-Cyclopropyl(4,4,4-trifluorobutanamido)methyl)imidazo[1,2-b]pyridazin-2-yl)(4,4-difluorocyclohexyl)methyl)spiro[2.3]hexane-1-carboxamide], the concentration for half-maximal inhibition (IC50) was determined as 240 nM in experiment [1] and 630 nM in experiment [2].
Regarding `O=C(CCC(F)(F)F)N[C@@H](c1cnn2cc([C@@H](NC(=O)[C@H]3C(F)(F)C34CCC4)C3CCC(F)(F)CC3)nc2c1)C1CC1` (relative stereo) [Example 368, (S*)—N—((S)-(7-((R*)-Cyclopropyl(4,4,4-trifluorobutanamido)methyl)imidazo[1,2-b]pyridazin-2-yl)(4,4-difluorocyclohexyl)methyl)-2,2-difluorospiro[2.3]hexane-1-carboxamide], the half-maximal inhibitory concentration (IC50) in experiment [1] was 1600 nM; in experiment [2], 9800 nM.
For `O=C(CCC(F)(F)F)N[C@@H](c1cnn2cc([C@@H](NC(=O)[C@@H]3C(F)(F)C34CCC4)C3CCC(F)(F)CC3)nc2c1)C1CC1` (relative stereo) [Example 369, (R*)—N—((S)-(7-((R*)-Cyclopropyl(4,4,4-trifluorobutanamido)methyl)imidazo[1,2-b]pyridazin-2-yl)(4,4-difluorocyclohexyl)methyl)-2,2-difluorospiro[2.3]hexane-1-carboxamide] the same measures were 140 nM and 530 nM.
For `CC(C)n1nccc1C(=O)N[C@H](c1cn2ncc([C@H](NC(=O)CC3CC(F)(F)C3)C3CC3)cc2n1)[C@@H]1C[C@@H]2[C@H](C1)C2(F)F` (relative stereo) [Example 404, N—((S*)-(7-((R)-Cyclopropyl(2-(3,3-difluorocyclobutyl)acetamido)methyl)imidazo[1,2-b]pyridazin-2-yl)((1R,3s,5S)-6,6-difluorobicyclo[3.1.0]hexan-3-yl)methyl)-1-isopropyl-1H-pyrazole-5-carboxamide] the same measures were 180 nM and 58 nM.
For `Cc1nonc1C(=O)N[C@H](c1cn2ncc([C@H](NC(=O)CC3CC(F)(F)C3)C3CC3)cc2n1)[C@@H]1C[C@@H]2[C@H](C1)C2(F)F` (relative stereo) [Example 405, N—((S*)-(7-((R)-Cyclopropyl(2-(3,3-difluorocyclobutyl)acetamido)methyl)imidazo[1,2-b]pyridazin-2-yl)((1R,3s,5S)-6,6-difluorobicyclo[3.1.0]hexan-3-yl)methyl)-4-methyl-1,2,5-oxadiazole-3-carboxamide] the same measures were 100 nM and 350 nM.
Consider `N#CC1([C@@H](NC(=O)C[C@H]2CC2(F)F)c2cnn3cc([C@@H](NC(=O)c4nonc4C4CC4)C4CCC(F)(F)CC4)nc3c2)CCC1` (relative stereo) [Example 449, N—((S)-(7-((S*)-(1-Cyanocyclobutyl)(2-((S*)-2,2-difluorocyclopropyl)acetamido)methyl)imidazo[1,2-b]pyridazin-2-yl)(4,4-difluorocyclohexyl)methyl)-4-cyclopropyl-1,2,5-oxadiazole-3-carboxamide], for which the IC50 in experiment [1] turned out to be 28 nM; in experiment [2], 4.7 nM.
As for `[2H]C([2H])([2H])n1nccc1C(=O)N[C@H](c1cn2ncc([C@@H](NC(=O)CC3CC(F)(F)C3)C3CCC3)cc2n1)C1CCC(F)(F)CC1` (relative stereo) [Example 498, N—((S)-(7-((S*)-Cyclobutyl(2-(3,3-difluorocyclobutyl)acetamido)methyl)imidazo[1,2-b]pyridazin-2-yl)(4,4-difluorocyclohexyl)methyl)-1-methyl-d3)-1H-pyrazole-5-carboxamide], the IC50 in experiment [1] was 380 nM; in experiment [2] it was 20000 nM.
For `[2H]C([2H])([2H])C([2H])([2H])n1nccc1C(=O)N[C@H](c1cn2ncc([C@H](NC(=O)C[C@H](C)C(F)(F)F)C3CCC3)cc2n1)C1CCC(F)(F)CC1` (relative stereo) [Example 500, N—((S)-(7-((R*)-Cyclobutyl((S*)-4,4,4-trifluoro-3-methylbutanamido)methyl)imidazo[1,2-b]pyridazin-2-yl)(4,4-difluorocyclohexyl)methyl)-1-(ethyl-d5)-1H-pyrazole-5-carboxamide] the same measures were 150 nM and 140 nM.
The matching figures for `[2H]C([2H])([2H])C([2H])([2H])n1nccc1C(=O)N[C@H](c1cn2ncc([C@H](NC(=O)C[C@@H](C)C(F)(F)F)C3CCC3)cc2n1)C1CCC(F)(F)CC1` (relative stereo) [Example 501, N—((S)-(7-((R*)-Cyclobutyl((R*)-4,4,4-trifluoro-3-methylbutanamido)methyl)imidazo[1,2-b]pyridazin-2-yl)(4,4-difluorocyclohexyl)methyl)-1-(ethyl-d5)-1H-pyrazole-5-carboxamide]: 120 nM and 95 nM.
As to `[2H]C([2H])([2H])n1nccc1C(=O)N[C@H](c1cn2ncc([C@H](NC(=O)C[C@@H](C)C(F)(F)F)C3CCC3)cc2n1)C1CCC(F)(F)CC1` (relative stereo) [Example 502, N—((S)-(7-((R*)-Cyclobutyl((R*)-4,4,4-trifluoro-3-methylbutanamido)methyl)imidazo[1,2-b]pyridazin-2-yl)(4,4-difluorocyclohexyl)methyl)-1-(methyl-d3)-1H-pyrazole-5-carboxamide], the figures for the IC50 in experiment [1] and in experiment [2] were 160 nM and 400 nM, respectively.
The matching figures for `[2H]C([2H])([2H])n1nccc1C(=O)N[C@H](c1cn2ncc([C@H](NC(=O)C[C@H](C)C(F)(F)F)C3CCC3)cc2n1)C1CCC(F)(F)CC1` (relative stereo) [Example 503, N—((S)-(7-((R*)-Cyclobutyl((S*)-4,4,4-trifluoro-3-methylbutanamido)methyl)imidazo[1,2-]pyridazin-2-yl)(4,4-difluorocyclohexyl)methyl)-1-(methyl-d3)-1H-pyrazole-5-carboxamide]: 100 nM and 130 nM.
For `[2H]C([2H])([2H])C([2H])([2H])n1nccc1C(=O)N[C@H](c1cn2ncc([C@H](CC)NC(=O)CC3CC(F)(F)C3)cc2n1)C1CCC(F)(F)CC1` (relative stereo) [Example 508, N—((S)-(7-((S*)-1-(2-(3,3-Difluorocyclobutyl)acetamido)propyl)imidazo[1,2-b]pyridazin-2-yl)(4,4-difluorocyclohexyl)methy)-1-(ethyl-d5)-1H-pyrazole-5-carboxamide] the same measures were 1200 nM and 10000 nM.
Consider `CC[C@H](NC(=O)CC1CC(F)(F)C1)c1cnn2cc([C@@H](NC(=O)c3nonc3C3CC3)C3CCC(F)(F)CC3)nc2c1` (relative stereo) [Example 521, 4-Cyclopropyl-N—((S*)-(7-((R)-1-(2-(3,3-difluorocyclobutyl)acetamido)propyl)imidazo[1,2-b]pyridazin-2-yl)(4,4-difluorocyclohexyl)methyl)-1,2,5-oxadiazole-3-carboxamide], for which the values for the IC50 in experiment [1] and in experiment [2] were 390 nM and 8000 nM, respectively.

For orientation: IC50 means the midpoint of a concentration-inhibition curve. High values mean weaker potency in that assay, low ones greater potency in that assay.
